{
  "source": "patent US20220242851A1",
  "about": "“CRYSTAL FORM AND SALT OF QUINAZOLINE COMPOUND AND PREPARATION METHOD THEREOF” (SHENZHEN JINRUI FOUNDATION BIOTECH CO., LTD, priority 2019, published 2022)",
  "key": {"[1]": {"system": "OE19 cells", "experiment": "CTG assay of OE19 cells", "assay_type": "cell-based", "details": "conclusion", "method": "OE19 cells with saturation of 80%-90% were digested with trypsin, centrifuged, resuspended and counted. The concentration of cells was adjusted to […]. OE19 cells were added to a 96-well cell culture plate to 8000 OE19 cells per well. The cells were cultured in a cell incubator containing 5% CO2 at 37° C. overnight.\nThe stock solution of the assay compounds was serially 3-fold diluted with DMSO to a total of 10 concentrations. Before the start of the assay, the serially diluted assay compounds were further diluted to 10×compound solutions (the highest concentration of 100 μM containing 1% DMSO) with cell culture medium under sterile conditions. The prepared 10×compound solutions were added to the cell culture plate with 10 μL per well. […]\nAfter 72 hours of cell culture, the 96-well cell culture plate was taken out. […] The cell plate was placed in Envision for reading.\nThe inhibition rate was calculated according to original data as follows: […]\nNon-linear regression analysis was performed using the processed data and GraphPad Prism 6 analysis software to obtain a dose-response curve, and the half-inhibitory concentration (IC50) of the assay compounds on OE19 cells was calculated."}, "[2]": {"experiment": "Pharmacokinetics in mice", "assay_type": "in vivo, mouse", "method": "Purpose of the assay: this assay aimed to investigate in vivo plasma pharmacokinetics of the example compound disclosed herein and the reference compound in female BALB/c mice after the single intravenous injection and intragastric administration thereof.\nAnimals of the assay: female BALB/c nude mice, 7-9 weeks old, weighted 17-23 grams; supplier: shanghai sippr bk laboratory animals Ltd.\nSample collection: at each time point, a 0.03 mL blood sample was collected from the saphenous vein of the assay animal by puncture, and the actual blood collection time was recorded. All blood samples were added into commercial EDTA-K2 anticoagulation tubes with a specification of 1.5 mL (the supplier was Jiangsu KANGJIAN Medical Apparatus Co., Ltd.). Within half an hour after the blood sample was collected, the blood sample was centrifuged at 3000 g at 4° C. for 10 minutes, and the supernatant plasma was drawn, quickly placed in dry ice, and stored in a refrigerator at −80° C. for LC-MS/MS analysis.\nData analysis: Plasma concentrations were processed using a non-compartmental model of WinNonlin™Version6.3 (Pharsight, MountainView, Calif.) pharmacokinetic software, and pharmacokinetic parameters Cmax, Tmax, T1/2, and AUC0-last were calculated using a linear log trapezoid method."}, "[3]": {"target": "HER1(ErbB1) (Homo sapiens, UniProt P00533)", "sequence (P00533 25-1210)": "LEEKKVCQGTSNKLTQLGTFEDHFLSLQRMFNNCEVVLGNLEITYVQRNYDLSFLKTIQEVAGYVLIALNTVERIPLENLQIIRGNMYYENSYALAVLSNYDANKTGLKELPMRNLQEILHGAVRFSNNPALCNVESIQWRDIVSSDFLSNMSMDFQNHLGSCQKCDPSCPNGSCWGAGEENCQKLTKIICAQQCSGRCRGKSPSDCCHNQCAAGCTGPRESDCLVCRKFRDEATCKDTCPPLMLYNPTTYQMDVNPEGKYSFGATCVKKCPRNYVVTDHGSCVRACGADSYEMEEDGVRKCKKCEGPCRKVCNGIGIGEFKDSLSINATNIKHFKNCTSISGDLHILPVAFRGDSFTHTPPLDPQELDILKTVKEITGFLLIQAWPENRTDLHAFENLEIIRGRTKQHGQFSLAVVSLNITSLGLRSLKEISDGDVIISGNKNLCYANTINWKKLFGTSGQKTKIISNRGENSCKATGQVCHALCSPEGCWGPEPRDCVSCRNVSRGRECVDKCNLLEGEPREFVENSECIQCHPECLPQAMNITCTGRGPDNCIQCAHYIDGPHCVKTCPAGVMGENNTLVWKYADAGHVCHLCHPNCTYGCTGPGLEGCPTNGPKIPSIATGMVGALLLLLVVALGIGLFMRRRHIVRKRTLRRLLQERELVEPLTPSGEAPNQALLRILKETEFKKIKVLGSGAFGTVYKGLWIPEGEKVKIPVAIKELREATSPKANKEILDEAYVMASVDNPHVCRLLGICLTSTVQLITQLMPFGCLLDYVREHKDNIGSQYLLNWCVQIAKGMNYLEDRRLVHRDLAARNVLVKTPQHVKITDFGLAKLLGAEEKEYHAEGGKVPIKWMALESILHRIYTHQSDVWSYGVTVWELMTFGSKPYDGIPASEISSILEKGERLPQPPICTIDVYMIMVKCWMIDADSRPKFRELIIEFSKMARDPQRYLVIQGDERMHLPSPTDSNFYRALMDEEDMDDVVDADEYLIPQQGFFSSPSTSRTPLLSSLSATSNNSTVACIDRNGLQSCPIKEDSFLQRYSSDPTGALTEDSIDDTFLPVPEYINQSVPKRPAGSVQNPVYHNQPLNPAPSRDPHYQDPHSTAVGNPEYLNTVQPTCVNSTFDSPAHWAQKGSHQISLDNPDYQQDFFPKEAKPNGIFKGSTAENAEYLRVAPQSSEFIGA", "experiment": "In vitro enzyme activity, HER1 (radiometric, Eurofins)", "assay_type": "biochemical", "details": "conclusion", "method": "The purpose of this assay is to detect the in vitro inhibitory activity of compounds on HER1(ErbB1), HER2(ErbB2), and HER4(ErbB4). The enzymes used in this assay are human ErbB 1, ErbB2 and ErbB4. Eurofins Pharma Discovery Service provided the method for activity detection. Steps and method of the assay (96-well plate): A buffer solution of the assay compounds in a dilution of 5-fold (5 μL), polypeptide substrate poly(Glu, Tyr) (4:1) (2.5 μL), ErbB (4-20 ng, 2.5 μL), MnCl2 (50 mM, 1.25 μL), dH2O (3.75 μL), and [γ-^33P]ATP (10 μL) were added, and incubated at 30° C. for 10 minutes. The reaction was terminated by adding 3% phosphoric acid. 10 μL of the sample was taken and transferred to Filtermate A. The filter disc was washed 3 times with 75 mM phosphoric acid and once with methanol. The filter disc was transferred to a sealed plastic bag and the scintillation mixture (4 mL) was added. The intensity of the emitted photon was detected by a scintillation luminescence counter. The CPM (times/min) of the enzyme sample was compared with the CPM of the internal control sample. The level of photon intensity reflected the degree of the tyrosine kinase activity."}, "[4]": {"system": "OE21 cell", "experiment": "Inhibition of cell proliferation, Cell-Titer-Glo, OE21", "assay_type": "cell-based, human", "details": "conclusion", "from_the_text": "Purpose of the assay: the inhibitory activity of the assay compounds on cell proliferation was detected. Principle of the assay: the luciferase in a Cell-Titer-Glo reagent produces oxidized luciferin with luciferin, oxygen and ATP as reaction substrates, and releases energy in the form of light. Since the luciferase reaction requires ATP, the total amount of light generated by the reaction is proportional to the total amount of ATP that reflects cell viability. Cell line: NCI-N87 cell line (ATCC-CRL-5822), BT-474 cell line (ATCC-HTB-20), OE21 (ECACC-96062201) Cell culture medium: […] L-[…]×, Gibco#25030-081; penicillin-streptomycin Hyclone# SV30010) Cell Titer-Glo® cell viability assay kit with luminescence (Promega #G7573) 384-well cell culture plate (Greiner # 781090) Compound plate (LABCYTE # LP-0200) CO2 incubator (Thermo#371) Vi-cell cell counter (Beckman Coulter) According to the schematic diagram of the cell seed plate, cells were seeded in a 384- or 96-well plate at a density of 1000 cells per well and 25 μL per well, and 25 μL of PBS was added to the wells near edge of the place where no cells were seeded. (1) The stock solution of the compounds has a concentration of 10 mM, and the compounds were diluted with DMSO to an initial concentration of 4 mM. […] After 10 minutes, the plate was read on PerkinElmer Envision, and the […] reading time was set to 0.2 second."}},
  "data": [
    {"smiles": "C=CC(=O)N1[C@@H]2CC[C@H]1C[C@H](Nc1cc3c(Nc4ccc(Cl)c(Cl)c4F)ncnc3cc1OC)C2", "note": "[Compound of formula (I)]", "values": [
      {"measurement": "inhibitory activity on the proliferation of OE19 cells (in words)", "setting": "[1]", "result": "significant inhibitory activity"},
      {"measurement": "half-life compared with reference (in words)", "setting": "[2]", "result": "longer half-life than that of the reference compound"},
      {"measurement": "oral plasma exposure compared with Poziotinib and control compound 2 (in words)", "setting": "[2]", "result": "significantly better oral plasma exposure"},
      {"measurement": "inhibitory activity on HER1 (in words)", "setting": "[3]", "result": "significant inhibitory activity"},
      {"measurement": "inhibitory activity on the proliferation of OE21 cells (in words)", "setting": "[4]", "result": "significant inhibitory activity"}
    ]}
  ]
}
